Drawing on patent US8592448B2 (OSI Pharmaceuticals, LLC, priority 2008, dated 2013), this text covers IC50 for 13 compounds.

The target in this assay is T1, phosphorylated c-MET (Homo sapiens, UniProt P08581).
T1 construct: endogenous in cells; host or cells: MKN45
The experiment in a line: c-MET cell mechanistic assay (phosphorylated c-MET in MKN45 cells). Conditions: MKN45 cell line, four hours incubation, phosphorylated c-MET levels, at least duplicate experiments; read-out: Met mech IC50. It counts as cell-based. How it is done: The cellular activity of the compounds of the present invention may be determined by the following procedure. MKN45 cells were plated in Falcon 3072 96-well plates in growth media (RPMI, 10% FBS, 1% L-glutamine) at a density of 5000 cells/well and incubated at 37° C., 5% CO2 overnight. The following day, one-tenth volume of a 10× concentration of compounds was added to the wells in a 6-point dilution series. The dilutions series was composed of an initial 1:5 dilution in DMSO, followed by a 1:10 dilution in growth media, for a final DMSO concentration on cells of 0.5%. Control wells were treated with 0.5% DMSO. The typical range of dilution was 10 μM to 3 nM. Once compound was added to the cells, plates were incubated for four hours at 37° C., 5% CO2. Plates were then washed in PBS, and lysed in triton-based lysis buffer. Lysates were transferred to a precoated capture plate made by Biosource (Cat # KH00281). The phosphorylated c-MET levels were measured by incubating with a rabbit polyclonal antibody against phosphorylated c-MET ([pYpYpY1230/1234/1235]) followed by an anti-rabbit antibody conjugated to HRP. Signal was measured on a Wallac Victor plate reader at 450 nm. The DMSO signal of the control wells was defined as 100% and the percent of inhibition of phosphorylated c-Met was expressed as percent of control. IC50 values were determined from the percent of control data using a standard four-parameter model.
The IC50 values of exemplary compounds of the present invention determined in a c-MET cell mechanistic assay using the MKN45 cell line according to the procedures described herein in at least duplicate experiments are abbreviated as follows and are shown in Table 3: A, IC50≦0.1 μM; B, 0.1 μM<IC50≦1 μM; C, 1 μM<IC50≦10 μM; D, IC50>10 μM; ND, not determined. The Example # of Table 3 corresponds to the compound example number as illustrated in the Examples section.

T1 sequence (P08581 25-1390): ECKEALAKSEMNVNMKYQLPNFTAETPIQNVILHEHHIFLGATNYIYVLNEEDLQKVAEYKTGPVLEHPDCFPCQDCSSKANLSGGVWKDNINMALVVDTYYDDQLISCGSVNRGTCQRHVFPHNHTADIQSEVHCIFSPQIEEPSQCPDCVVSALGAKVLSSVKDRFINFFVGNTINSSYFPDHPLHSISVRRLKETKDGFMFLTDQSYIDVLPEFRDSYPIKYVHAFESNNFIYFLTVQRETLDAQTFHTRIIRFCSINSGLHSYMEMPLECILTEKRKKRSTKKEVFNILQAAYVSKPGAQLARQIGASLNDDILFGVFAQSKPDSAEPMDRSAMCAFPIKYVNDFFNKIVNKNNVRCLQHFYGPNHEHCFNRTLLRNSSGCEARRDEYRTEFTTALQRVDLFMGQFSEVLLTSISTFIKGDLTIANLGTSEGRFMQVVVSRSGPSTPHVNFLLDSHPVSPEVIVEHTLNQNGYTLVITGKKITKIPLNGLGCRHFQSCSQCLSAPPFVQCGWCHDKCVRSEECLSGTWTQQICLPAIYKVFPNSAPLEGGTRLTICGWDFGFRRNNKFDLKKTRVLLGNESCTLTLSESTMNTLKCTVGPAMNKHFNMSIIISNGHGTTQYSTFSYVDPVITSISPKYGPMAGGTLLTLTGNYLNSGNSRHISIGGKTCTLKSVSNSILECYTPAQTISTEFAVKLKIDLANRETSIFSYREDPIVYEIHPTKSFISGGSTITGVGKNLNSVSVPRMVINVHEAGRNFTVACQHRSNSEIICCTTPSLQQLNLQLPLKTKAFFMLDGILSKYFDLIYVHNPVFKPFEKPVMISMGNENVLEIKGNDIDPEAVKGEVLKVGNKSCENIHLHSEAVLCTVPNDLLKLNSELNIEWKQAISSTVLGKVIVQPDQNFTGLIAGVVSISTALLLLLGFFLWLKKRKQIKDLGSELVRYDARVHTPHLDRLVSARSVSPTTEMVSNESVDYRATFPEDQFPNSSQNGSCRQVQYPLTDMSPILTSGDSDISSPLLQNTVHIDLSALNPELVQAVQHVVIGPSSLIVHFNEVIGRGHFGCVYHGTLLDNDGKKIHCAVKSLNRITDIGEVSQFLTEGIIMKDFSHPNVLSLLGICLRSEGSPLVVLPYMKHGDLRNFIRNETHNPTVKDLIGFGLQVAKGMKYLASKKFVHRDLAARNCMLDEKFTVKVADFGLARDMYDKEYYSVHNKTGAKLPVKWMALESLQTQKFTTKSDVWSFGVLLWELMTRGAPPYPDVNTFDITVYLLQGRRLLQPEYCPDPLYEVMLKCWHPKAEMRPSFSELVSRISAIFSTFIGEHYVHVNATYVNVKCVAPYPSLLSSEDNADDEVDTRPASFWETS

As for `C[C@H](c1c(Cl)ccc(F)c1Cl)c1c[nH]c2ncc(-c3cnn(CC(=O)O)c3)cc12` [Example 74, (4-{3-[(S)-1-(2,6-Dichloro-3-fluorophenyl)ethyl]-1H-pyrrolo[2,3-b]pyridin-5-yl}-pyrazol-1-yl)-acetic acid], the IC50 fell in the range of 100 to 1000 nM.
The figure for `C[C@H](c1c(Cl)ccc(F)c1Cl)c1c[nH]c2ncc(-c3cnn([C@H]4CC[C@@H](O)CC4)c3)cc12` [Example 87, cis-4-(4-{3-[(1S)-1-(2,6-dichloro-3-fluorophenyl)ethyl]-1H-pyrrolo[2,3-b]pyridin-5-yl}-1H-pyrazol-1-yl)cyclohexanol] is at most 100 nM; for “3-[1-(2,6-Dichloro-3-fluorophenyl)ethyl]-5-[1-(1-methanesulfonylpiperidin-4-yl)-1H-pyrazol-4-yl]-1H-pyrrolo[2,3-b]pyridine [Example 37]” it is 100 to 1000 nM.
For the compound `C[C@H](c1c(Cl)ccc(F)c1Cl)c1c[nH]c2ncc(C3=CCCNC3)cc12` [Example 66, 3-[(S)-1-(2,6-Dichloro-3-fluorophenyl)ethyl]-5-(1,2,5,6-tetrahydropyridin-3-yl)-1H-pyrrolo[2,3-b]pyridine], the IC50 was 100 to 1000 nM.
The figure for `CNC(=O)N1CC=C(c2cnc3[nH]cc(C(C)c4c(Cl)ccc(F)c4Cl)c3c2)CC1` (stereo not shown) [Example 34, 4-{3-[1-(2,6-Dichloro-3-fluorophenyl)ethyl]-1H-pyrrolo[2,3-b]pyridin-5-yl}-3,6-dihydro-2H-pyridine-1-carboxylic acid methylamide] is 100 to 1000 nM; for `CC(c1c(Cl)ccc(F)c1Cl)c1c[nH]c2ncc(-c3cnn(C4CCN(S(N)(=O)=O)CC4)c3)cc12` (stereo not shown) [Example 52, 4-(4-{3-[1-(2,6-Dichloro-3-fluorophenyl)ethyl]-1H-pyrrolo[2,3-b]pyridin-5-yl}-pyrazol-1-yl)-piperidine-1-sulfonic acid amide] it is 100 to 1000 nM.
For `C[C@H](c1c(Cl)ccc(F)c1Cl)c1c[nH]c2ncc(-c3ccncc3)cc12` [Example 68, 3-[(S)-1-(2,6-Dichloro-3-fluorophenyl)ethyl]-5-pyridin-4-yl-1H-pyrrolo[2,3-b]pyridine] the value was 100 to 1000 nM; for `COC(=O)N1CC=C(c2cnc3[nH]cc(C(C)c4c(Cl)ccc(F)c4Cl)c3c2)CC1` (stereo not shown) [Example 35, 4-{3-[1-(2,6-Dichloro-3-fluorophenyl)-ethyl]-1H-pyrrolo[2,3-b]pyridin-5-yl}-3,6-dihydro-2H-pyridine-1-carboxylic acid methyl ester], 100 to 1000 nM; for `CC(c1c(Cl)ccc(F)c1Cl)c1c[nH]c2ncc(-c3cn(C)cn3)cc12` (stereo not shown) [Example 54, 3-[1-(2,6-Dichloro-3-fluorophenyl)ethyl]-5-(1-methyl-1H-imidazol-4-yl)-1H-pyrrolo[2,3-b]pyridine], 100 to 1000 nM.
With `C[C@@H](c1c(Cl)ccc(F)c1Cl)c1c[nH]c2ncc(-c3cnn(C4CCN(S(C)(=O)=O)CC4)c3)cc12` [Example 83, 3-[(R)-1-(2,6-Dichloro-3-fluorophenyl)ethyl]-5-[1-(1-methane-sulfonylpiperidin-4-yl)-1H-pyrazol-4-yl]-1H-pyrrolo[2,3-b]pyridine], the IC50 was in the range of 1000 to 10000 nM.
On to `C[C@@H](c1c(Cl)ccc(F)c1Cl)c1c[nH]c2ncc(-c3cnn(C4CCN(C(N)=O)CC4)c3)cc12` [Example 84, 4-(4-{3-[(R)-1-(2,6-Dichloro-3-fluorophenyl)ethyl]-1H-pyrrolo[2,3-b]-pyridin-5-yl}-pyrazol-1-yl)-piperidine-1-carboxamide], for which the IC50 is 1000 to 10000 nM.
For `CC(c1c(Cl)ccc(F)c1Cl)c1c[nH]c2ncc(C3=CCN(C(=O)C(O)C(F)(F)F)CC3)cc12` (stereo not shown) [Example 44] the value was 100 to 1000 nM.
For `C[C@H](c1c(Cl)ccc(F)c1Cl)c1c[nH]c2ncc(-c3cnn([C@H]4CC[C@H](O)CC4)c3)cc12` [Example 86, trans-4-(4-{3-[(1S)-1-(2,6-dichloro-3-fluorophenyl)ethyl]-1H-pyrrolo[2,3-b]pyridin-5-yl}-1H-pyrazol-1-yl)cyclohexanol] the value was at most 100 nM.

In general, IC50 refers to the concentration needed to halve the response being measured.
